Results from patent US12643887B2, “Heterocyclic derivatives with cardiomyocyte proliferation activity for treatment of heart diseases” (Tongji University, priority 2019, dated 2026).

Assays:
human HIPK2 = molecular target: T1, human HIPK2 (Homo sapiens, UniProt Q9H2X6); assay: HIPK2 enzyme assay (ADP-Glo); type: biochemical; conditions: ADP-Glo, ATP 5 μM; read-out: HIPK2 IC50
T1 construct: Recombinant human HIPK2 (1-640); GST (N); purchased SignalChem H04-11BG; host or cells: Sf9 insect cells
Procedure, shortened: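 GST-tagged HIPK2 (1-640) from Sf9, 1 nM, preincubated 30 min at 25° C with inhibitor in 40 mM Tris pH 7.5, 20 mM MgCl2. Reaction ran 90 min at 25° C with GST-MBP substrate at 0.05 mg/ml and 5 μM ATP. ADP-Glo luminescence; IC50 by four-parameter logistic fit.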

human CLK1 = molecular target: T2, human CLK1 (Homo sapiens, UniProt P49759); assay: CLK1 enzyme assay (ADP-Glo); type: biochemical; conditions: ADP-Glo, ATP 10 μM; read-out: CLK1 IC50
T2 construct: Recombinant human CLK1 (129-end); GST (N); purchased SignalChem C57-11G; host or cells: Sf9 insect cells
T2 sequence (P49759 129-484 limits assumed): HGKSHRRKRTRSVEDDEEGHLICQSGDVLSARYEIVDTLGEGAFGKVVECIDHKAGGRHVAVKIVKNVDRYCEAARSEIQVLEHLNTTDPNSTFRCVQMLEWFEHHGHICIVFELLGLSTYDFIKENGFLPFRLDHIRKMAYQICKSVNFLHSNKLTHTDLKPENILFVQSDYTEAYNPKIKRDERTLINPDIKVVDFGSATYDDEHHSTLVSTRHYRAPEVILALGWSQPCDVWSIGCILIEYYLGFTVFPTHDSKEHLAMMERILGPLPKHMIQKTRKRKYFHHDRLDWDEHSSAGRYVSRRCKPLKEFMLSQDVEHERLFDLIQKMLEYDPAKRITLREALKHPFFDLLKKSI
Procedure, shortened: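 GST-tagged CLK1 (129-end, Sf9-expressed) at 16 nM was preincubated with compound 30 min at 25 °C in 40 mM Tris pH 7.5, 20 mM MgCl2, 0.1 mg/ml BSA, 50 μM DTT. Reaction with 2 μM substrate and 10 μM ATP ran 60 min at 25 °C. ADP-Glo luminescence gave IC50 by four-parameter fit.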

T1 sequence (Q9H2X6 1-640): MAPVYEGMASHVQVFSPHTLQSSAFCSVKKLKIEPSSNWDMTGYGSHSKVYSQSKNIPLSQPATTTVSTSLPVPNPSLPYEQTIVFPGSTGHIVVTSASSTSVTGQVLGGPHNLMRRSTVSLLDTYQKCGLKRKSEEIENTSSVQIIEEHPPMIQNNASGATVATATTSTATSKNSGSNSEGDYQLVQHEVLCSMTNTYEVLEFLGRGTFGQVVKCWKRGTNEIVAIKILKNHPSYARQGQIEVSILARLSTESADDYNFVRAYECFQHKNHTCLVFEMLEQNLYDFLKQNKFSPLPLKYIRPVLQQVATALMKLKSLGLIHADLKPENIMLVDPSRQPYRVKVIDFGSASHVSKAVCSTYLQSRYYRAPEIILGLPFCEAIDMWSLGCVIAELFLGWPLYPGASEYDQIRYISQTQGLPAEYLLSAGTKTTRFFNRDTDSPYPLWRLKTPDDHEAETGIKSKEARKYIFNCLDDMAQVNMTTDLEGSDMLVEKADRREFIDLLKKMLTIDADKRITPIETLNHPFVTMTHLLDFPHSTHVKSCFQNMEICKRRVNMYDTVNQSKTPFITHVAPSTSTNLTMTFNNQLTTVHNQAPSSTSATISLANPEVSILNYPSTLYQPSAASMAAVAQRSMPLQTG

| IC50 (human HIPK2) [µM] | IC50 (human CLK1) [µM] | Compound |
| --- | --- | --- |
| > 10 | > 10 | Cn1cnc2cc(/C=C3\N=C(Nc4ccccc4)NC3=O)ccc21 [Example 71, (Z)-5-((1-methyl-1H-benzo[d]imidazol-5-yl)methylene)-2-(phenylamino)-3,5-dihydro-4H-imidazol-4-one] |
| > 10 | > 10 | O=C1NC(Nc2ccccc2)=N/C1=C\c1ccc2sccc2c1 [Example 72, (Z)-5-(benzo[b]thiophen-5-ylmethylene)-2-(phenylamino)-3,5-dihydro-4H-imidazol-4-one] |
| > 10 | > 10 | O=C1NC(Nc2ccccc2)=N/C1=C\c1ccc2cc[nH]c2c1 [Example 73, (Z)-5-((1H-indol-6-yl)methylene)-2-(phenylamino)-3,5-dihydro-4H-imidazol-4-one] |
| > 10 | > 10 | O=C1NC(Nc2ccc3ncsc3c2)=N/C1=C\c1ccc2c(c1)OCCO2 [Example 74, (Z)-2-(benzo[d]thiazol-6-ylamino)-5-((2,3-dihydrobenzo[b][1,4]dioxin-6-yl)methylene)-3,5-dihydro-4H-imidazol-4-one] |
| < 0.1 | < 0.1 | Cn1cnc2ccc(/C=C3\N=C(Nc4ccc5ncsc5c4)NC3=O)cc21 [Example 75, (Z)-2-(benzo[d]thiazol-6-ylamino)-5-((1-methyl-1H-benzo[d]imidazol-6-yl)methylene)-3,5-dihydro-4H-imidazol-4-one] |
| 0.1 to 1 | < 0.1 | O=C1NC(Nc2ccc3ncsc3c2)=N/C1=C\c1ccc2nc[nH]c2c1 [Example 76, (Z)-5-((1H-benzo[d]imidazol-6-yl)methylene)-2-(benzo[d]thiazol-6-ylamino)-3,5-dihydro-4H-imidazol-4-one] |
| > 10 | > 10 | Cn1ncc2cc(/C=C3\N=C(Nc4ccc5ncsc5c4)NC3=O)ccc21 [Example 78, (Z)-2-(benzo[d]thiazol-6-ylamino)-5-((1-methyl-1H-indazol-5-yl)methylene)-3,5-dihydro-4H-imidazol-4-one] |
| < 0.1 | < 0.1 | O=C1NC(Nc2ccc3c(c2)OCCO3)=N/C1=C\c1ccc2ncsc2c1 [Example 81, (Z)-5-(benzo[d]thiazol-6-ylmethylene)-2-((2,3-dihydrobenzo[b][1,4]dioxin-6-yl)amino)-3,5-dihydro-4H-imidazol-4-one] |
| 0.1 to 1 | < 0.1 | O=C1NC(Nc2ccc3nccnc3c2)=N/C1=C\c1ccc2ncsc2c1 [Example 82, (Z)-5-(benzo[d]thiazol-6-ylmethylene)-2-(quinoxalin-6-ylamino)-3,5-dihydro-4H-imidazol-4-one] |
| > 10 | < 0.1 | CN(C1=N/C(=C\c2ccc3ncsc3c2)C(=O)N1)c1ccc2ncsc2c1 [Example 83, (Z)-2-(benzo[d]thiazol-6-yl(methyl)amino)-5-(benzo[d]thiazol-6-ylmethylene)-3,5-dihydro-4H-imidazol-4-one] |
| 1 to 10 | 0.1 to 1 | CN(C1=N/C(=C\c2ccc3c(c2)OCCO3)C(=O)N1)c1ccc2ncsc2c1 [Example 84, (Z)-2-(benzo[d]thiazol-6-yl(methyl)amino)-5-((2,3-dihydrobenzo[b][1,4]dioxin-6-yl)methylene)-3,5-dihydro-4H-imidazol-4-one] |

| Compound | IC50 (human HIPK2) [µM] | IC50 (human CLK1) [µM] |
| --- | --- | --- |
| Cn1ncc2cc(/C=C3\N=C(Nc4ccccc4)NC3=O)ccc21 [Example 77, (Z)-5-((1-methyl-1H-indazol-5-yl)methylene)-2-(phenylamino)-3,5-dihydro-4H-imidazol-4-one] | > 10 | 0.1 to 1 |
| Cn1ncc2ccc(/C=C3\N=C(Nc4ccccc4)NC3=O)cc21 [Example 79, 5-((1-methyl-1H-indazol-6-yl)methylene)-2-(phenylamino)-3,5-dihydro-4H-imidazol-4-one] | > 10 | > 10 |
| Cn1ncc2ccc(/C=C3\N=C(Nc4ccc5ncsc5c4)NC3=O)cc21 [Example 80, (Z)-2-(benzo[d]thiazol-6-ylamino)-5-((1-methyl-1H-indazol-6-yl)methylene)-3,5-dihydro-4H-imidazol-4-one] | > 10 | > 10 |
